From patent US11166958B2, “4-pyrazin-2-ylmethyl-morpholine derivatives and the use thereof as medicament” (Boehringer Ingelheim International GmbH, priority 2018, dated 2021) come the findings set out here.

Bounds are passed on as bounds.

One series addresses NMDA NR1/NR2B receptor (Homo sapiens (Human), UniProt Q13224). In words: In vitro NMDA NR1/NR2B cell assay (FLIPR, intracellular calcium induced by glycine/glutamate). The series is classed as cell-based. The following applies: HEK293 NR1/NR2B, 20 μM glycine / 1 μM glutamate, read-out: In vitro NR2B affinity, IC50. The procedure: A human HEK293 cell line with tetracyclin-inducible expression of NMDA NR1/NR2B receptor was used as a test system for compound efficacy and potency. The cell line was purchased from ChanTest, Catalog #CT6121. Compound activity was determined by measuring the effect of compounds on intracellular calcium concentration induced by glycine/glutamate agonism in a FLIPRtetra system (Molecular Devices).
The cells were obtained as frozen cells in cryo-vials and stored until use at −150° C. Cells were grown in culture medium (DMEM/F12, 10% FBS, 5 μg/mL Blasticidin, 150 μg/mL Zeozin, 500 μg/mL Geneticin). […] For sub-culturing the cells were detached from flasks by Versene. For the assay, cells were detached, washed twice with induction medium (DMEM/F12 without glutamine, 10% FBS, 2 μg/mL Tetracycline, 2 mM Ketamine) and seeded to 384 well pure coat amine plates (Becton Dickinson, 50000 cells per well in 50 μl) 48 h prior to assay in induction medium.
The test compounds were dissolved in 100% DMSO at a concentration of 10 mM and in a first step diluted in DMSO to a concentration of 5 mM, followed by serial dilution steps in 100% DMSO. Dilution factor and number of dilution steps may vary according to needs. Typically 8 different concentrations by 1:5 dilutions were prepared in duplicate, further intermediate dilutions (1:37.5) of the substances were carried out with aqueous assay buffer (137 mM NaCl, 4 mM KCl, 1.8 mM CaCl2), 10 mM HEPES, 10 mM Glucose, pH 7.4) resulting in a compound concentration 3 times above the final test concentration and DMSO at 2.7% resulting in 0.9% final DMSO concentration in the assay.
At the assay day cells were washed 3× with assay buffer (as described above), 10 μL buffer remained in the wells after washing. 10 μL Ca kit loading buffer (AAT Bioquest; prepared from the kit containing the following components: Component A: Fluo-8 NW dissolved in 200 μL DMSO and 20 μl of this solution are mixed with 10 ml buffer prepared out of component B and C, Component B: 10× Pluronic® F127 Plus diluted 1:10 in component C, Component C: HHBS (Hanks with 20 mM Hepes) was added to the cells and the plates were incubated with lid for 60 minutes at room temperature. 20 μl assay buffer containing 60 μM glycine (20 μM final) and 3 μM glutamate (1 μM final) was added to column 1-23, column 24 got assay buffer without glycine/glutamate to serve as negative unstimulated control. Fluorescence (indicating the calcium influx as a result of the NR1/NR2B ion channel activation) was read on the FLIPRtetra device for 60 seconds to monitor the glutamate induced effects. After 2 minutes 20 μL of compound dilution prepared as described above or controls (row 1-22) in assay buffer were carefully added to the wells. […] The average of 2 measurements at 5 minutes and 5 min 10 seconds after compound addition is calculated and further used for IC50 calculations. Each assay microtiter compound dilution plate contained wells (in column 23 or 24) with DMSO controls instead of compound as controls for glycine/glutamate induced fluorescence (high controls) and wells with 1 μM of a reference NR2B NAM as low controls (Compound 22; reference: Layton, Mark E et al, ACS Chemical Neuroscience 2011, 2(7), 352-362).
The output file of the reader contains the well number and measured average fluorescence units. For data evaluation and calculation, the measurement of the low control was set as 0% control and the measurement of the high control was set as 100% control. The IC50 values were calculated using the standard 4 parameter logistic regression formula. Calculation: [y=(a−d)/(1+(x/c)^b)+d], a=low value, d=high value; x=conc M; c=IC50 M; b=slope.
(In general: Calcium assays in cells follow changes in intracellular calcium, usually with a dye or a luminescent sensor.)

The nature of series [1]: Metabolic stability in pooled human liver microsomes. It counts as in vitro ADME. The following applies: pH 7.6, 1 μM compound, 1 mg/mL microsomal protein, 37° C., NADPH, read-out: Half-life − t½ human liver microsomes. The text has this: Stability in human liver microsomes refers to the susceptibility of compounds to biotransformation in the context of selecting and/or designing drugs with favorable pharmacokinetic properties. The primary site of metabolism for many drugs is the liver. Human liver microsomes contain the cytochrome P450s (CYPs), and thus represent a model system for studying drug metabolism in vitro Enhanced stability in human liver microsomes is associated with several advantages, including increased bioavailability and adequate half-life, which can enable lower and less frequent dosing of patients.
The metabolic degradation of the test compound was assayed at 37° C. with pooled human liver microsomes. The final incubation volume of 60 μl per time point contains TRIS buffer pH 7.6 at room temperature (0.1 M), magnesium chloride (5 mM aqueous solution), microsomal protein (1 mg/mL for human) and the test compound at a final concentration of 1 μM. Following a short preincubation period at 37° C., the reactions were initiated by addition of betanicotinamide adenine dinucleotide phosphate, reduced form (NADPH, 1 mM), and terminated by transferring an aliquot into acetonitril after different time points. After centrifugation (10000 g, 5 min), an aliquot of the supernatant was assayed by HPLC-MS/MS as described above for the MDCK assay P-gp for the amount of parent compound. The half-life was determined by the slope of the semi-logarithmic plot of the concentration-time profile.
A general note: Liver microsomes are a subcellular fraction often used to study metabolism.

Sequence of NMDA NR1/NR2B receptor (Q13224 27-1484, other chains not shown): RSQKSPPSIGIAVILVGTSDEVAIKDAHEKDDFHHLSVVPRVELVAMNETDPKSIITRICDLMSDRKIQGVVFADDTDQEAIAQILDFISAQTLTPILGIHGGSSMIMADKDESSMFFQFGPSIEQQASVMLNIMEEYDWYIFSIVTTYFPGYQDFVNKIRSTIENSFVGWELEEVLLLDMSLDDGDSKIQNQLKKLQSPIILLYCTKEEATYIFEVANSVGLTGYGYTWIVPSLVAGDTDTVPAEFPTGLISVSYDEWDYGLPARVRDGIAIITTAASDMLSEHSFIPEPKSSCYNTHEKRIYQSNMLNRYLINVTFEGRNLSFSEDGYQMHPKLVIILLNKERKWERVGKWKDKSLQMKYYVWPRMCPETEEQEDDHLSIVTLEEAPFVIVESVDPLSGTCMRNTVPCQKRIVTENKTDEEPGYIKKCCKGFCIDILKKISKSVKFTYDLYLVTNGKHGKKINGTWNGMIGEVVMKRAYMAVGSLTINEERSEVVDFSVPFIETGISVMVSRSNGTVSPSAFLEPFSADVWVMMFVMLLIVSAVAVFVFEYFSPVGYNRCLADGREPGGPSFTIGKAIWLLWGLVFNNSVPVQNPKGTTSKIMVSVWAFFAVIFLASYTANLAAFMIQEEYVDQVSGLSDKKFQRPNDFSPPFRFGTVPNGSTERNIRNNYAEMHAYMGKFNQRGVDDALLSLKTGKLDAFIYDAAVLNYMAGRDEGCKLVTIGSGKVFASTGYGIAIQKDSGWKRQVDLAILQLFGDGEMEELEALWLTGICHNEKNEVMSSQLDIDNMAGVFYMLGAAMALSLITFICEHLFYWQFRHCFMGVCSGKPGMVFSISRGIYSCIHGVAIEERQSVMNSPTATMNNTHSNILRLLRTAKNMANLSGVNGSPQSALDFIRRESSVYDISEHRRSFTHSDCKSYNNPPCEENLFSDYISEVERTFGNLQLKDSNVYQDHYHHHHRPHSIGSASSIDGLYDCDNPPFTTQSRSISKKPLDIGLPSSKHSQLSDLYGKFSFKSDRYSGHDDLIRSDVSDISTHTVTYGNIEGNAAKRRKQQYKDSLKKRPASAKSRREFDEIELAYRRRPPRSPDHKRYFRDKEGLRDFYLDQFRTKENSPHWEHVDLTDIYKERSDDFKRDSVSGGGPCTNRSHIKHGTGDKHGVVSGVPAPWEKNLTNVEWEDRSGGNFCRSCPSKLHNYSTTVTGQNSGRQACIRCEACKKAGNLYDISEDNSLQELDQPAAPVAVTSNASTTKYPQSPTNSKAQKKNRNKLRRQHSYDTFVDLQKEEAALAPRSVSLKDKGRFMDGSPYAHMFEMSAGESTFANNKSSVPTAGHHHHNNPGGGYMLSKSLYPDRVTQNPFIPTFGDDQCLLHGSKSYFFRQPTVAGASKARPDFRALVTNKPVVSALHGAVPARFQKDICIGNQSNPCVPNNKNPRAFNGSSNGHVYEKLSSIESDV

Usually IC50 stands for the concentration at which inhibition is half-maximal. A word on the half-life: it is the time in which the quantity being followed falls by half. Consider `CNC(=O)[C@@H]1CN(Cc2cnc(Oc3ccc(Cl)cc3)cn2)CCO1` [Example 7], for which, at NMDA NR1/NR2B receptor, the IC50 is 1000 nM. Moreover, the half-life at 1 µM in series [1] was above 2.17 h.
As to `CNC(=O)[C@@H]1CN(Cc2cnc(Oc3ccc(F)cc3)cn2)CCO1` [Example 1], the concentration for half-maximal inhibition (IC50) at NMDA NR1/NR2B receptor came out at 968 nM. For the same molecule, in series [1], the half-life at 1 µM was above 2.17 h.
Turning to `CNC(=O)[C@@H]1CN(Cc2cnc(Oc3ccc(Cl)cc3F)cn2)CCO1` [Example 5], the IC50 at NMDA NR1/NR2B receptor was found to be 110 nM. Moreover, the half-life at 1 µM in series [1] is above 2.17 h.
In the same order, the values of `CCNC(=O)[C@@H]1CN(Cc2cnc(Oc3ccc(C)cc3F)cn2)CCO1` [Example 31] are 524 nM and above 2.17 h.
In the same order, the values of `CNC(=O)[C@@H]1CN(Cc2cnc(Oc3ccc(F)cc3C)cn2)CCO1` [Example 8] are 856 nM and above 2.17 h.
For `CNC(=O)[C@@H]1CN(Cc2cnc(Oc3ccc(C)cc3)cn2)CCO1` [Example 3], at NMDA NR1/NR2B receptor, the IC50 was 690 nM. Besides, the half-life at 1 µM in series [1] is above 2.17 h.
As for `CCNC(=O)[C@@H]1CN(Cc2cnc(Oc3ccccc3Cl)cn2)CCO1` [Example 33], at NMDA NR1/NR2B receptor, the half-inhibitory concentration (IC50) came to 807 nM. Also, in series [1], the half-life at 1 µM is above 2.17 h.
In the same order, the values of `CNC(=O)[C@@H]1CN(Cc2cnc(Oc3ccc(C)cc3C)cn2)CCO1` [Example 4] are 1200 nM and above 2.17 h.
As to `CNC(=O)[C@@H]1CN(Cc2cnc(Oc3ccc(C)cc3F)cn2)CCO1` [Example 2], the IC50 at NMDA NR1/NR2B receptor amounted to 123 nM. Further, in series [1], the half-life at 1 µM is above 2.17 h.
For `CNC(=O)[C@@H]1CN(Cc2cnc(Oc3ccccc3Cl)cn2)CCO1` [Example 18], in that order: 222 nM and above 2.17 h.
In the same order, the values of `CNC(=O)[C@@H]1CN(Cc2cnc(Oc3ccccc3F)cn2)CCO1` [Example 9] are 210 nM and above 2.17 h.
In the same order, the values of `CNC(=O)[C@@H]1CN(Cc2cnc(Oc3ccc(F)cc3F)cn2)CCO1` [Example 6] are 87 nM and above 2.17 h.
With `CCNC(=O)[C@@H]1CN(Cc2cnc(Oc3ccc(F)cc3F)cn2)CCO1` [Example 30], the IC50 at NMDA NR1/NR2B receptor is 595 nM. The half-life at 1 µM in series [1] is above 2.17 h.
